According to PubChem BioAssay AID1963843 (Molecular Pharmacology Branch, DTP, NCI, 2024):
pIC50: −log10 of the molar value.

Test system: 616215-338-R-J1-PDC complex spheroid viability
Experiment: Anticancer human tumor 616215-338-R-J1-PDC patient-derived colon adenocarcinoma cell line growth inhibition [POLQ]
Conditions: for pIC50: curve of first compound; for viability, T/C: stronger effect = lower value
Experimental: Multicellular complex tumor spheroid response to Polymerase (POL) inhibitors (novobiocin, ART-558, RP6685) in combination with a variety of drugs and investigational agents in selected tumor cell lines
The POL inhibitors (novobiocin, ART-558, and RP6685) were evaluated both individually and in combination with standard of care and investigational anticancer small molecules within a complex spheroid model of solid tumors. . Complex spheroids include a stromal component modeled by human endothelial cells (HUVEC) and fibroblasts modeled by human mesenchymal stem cells (MSCs). The concentration ranges selected for each drug and investigational agent were based upon clinically achievable concentrations if the clinical Cmax of the agent was known.
Compounds. The drugs and investigational agents: novobiocin (NSC847541), ART-558 (NSC835418), RP-6685 (NSC848927), peposertib (NSC802822), ceralasertib (NSC780249), elimusertib (NSC800525), camonsertib (NSC841442), AZD-1390 (NSC803789), olaparib (NSC753686), talazoparib (NSC767125), rucaparib (NSC756644), sotorasib (NSC818433), MRTX-1133 (NSC836407), SN-38 (NSC673596), topotecan (NSC609699), epotoside (NSC141540), doxorubicin (NSC123127), gemcitabine (NSC613327), 5-fluorouracil (NSC19893), paclitaxel (NSC125973), vemurafenib (NSC761431), MSA-2 (NSC828583), SN-011 (NSC837082), adavosertib (NSC754352), prexasertib (NSC758257), carboplatin (NSC241240) and oxaliplatin (NSC266046), were obtained from the National Cancer Institute (NCI) Developmental Therapeutics Program Chemical Repository (21). The FDA-approved anticancer drug set is available from the Developmental Therapeutics Program at https://dtp.cancer.gov/organization/dscb/obtaining/. […] The stock solutions were prepared in dimethyl sulfoxide (DMSO, Sigma-Aldrich, St. Louis, MO, cat. D2650), except for the platinum compounds which were prepared in saline (Quality Biological, Gaithersburg, MD, cat. 114-055-101), at 800-fold the tested concentration and stored at -70 degrees C prior to their use. All drugs and investigational agents were tested over a range starting from a high concentration at or near the clinical Cmax and decreasing in half-log increments. If the clinical Cmax for an agent had not been determined, the highest concentration tested was 10 microM, except for SN-38, which was tested at a high concentration of 1 microM.
Cell Culture. All cells were maintained in an incubator at 37 degrees C and 5% CO2 with 95% humidity. The PDC lines were cultured according to standard operating procedures established by the NCI PDMR (https://pdmr.cancer.gov). Table 3 of the manuscript, lists the cell lines along with the number of the three cell types plated to form the mct-spheroids and media for tumor cell growth. After thawing, all PDC lines, except 997537-175-T-J1-PDC and 415267-285-R-J2-PDC, were cultured in Matrigel-coated flasks prepared with a working solution of 1X Ham's F-12 nutrient mix, without supplementation (Thermo Fisher Scientific, cat. 11765054), 100 U/mL penicillin-streptomycin (Thermo Fisher Scientific, cat. 15140122), and 2.5% Matrigel (Corning Inc., Corning, NY, cat. 354248) for the first three passages. The two PDC lines 997537-175-T-J1-PDC and 415267-285-R-J2-PDC were cultured on uncoated flasks. The 857933-349-R-J2-PDC line was cultured in 6C/Colon 1B media containing advanced DMEM/F-12 (Thermo Fisher Scientific, cat. 12634028), 10 mM HEPES (Thermo Fisher Scientific, cat. 15630080), 1X GlutaMAX supplement (Thermo Fisher Scientific, cat. 35050061), 0.1 mg/mL primocin (InvivoGen, San Diego, CA, cat. ant-pm-2), 10% defined fetal bovine serum, heat inactivated (HyClone Laboratories Inc., Logan, UT, cat. SH30070.03HI), 50% L-WRN conditioned media (ATCC, cat. CRL-3276), 1.25 mM N-Acetyl-L-cysteine (Sigma-Aldrich, cat. A9165), 10 mM nicotinamide (Sigma-Aldrich, cat. N0636), 1X B-27 supplement (Thermo Fisher Scientific, cat. 17504044), 1X N-2 supplement (Thermo Fisher Scientific, cat. […]
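Also: spheroids exposed to compounds for one week before readout.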
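For viability, T/C in this document: percent viability relative to DMSO vehicle wells taken as 100%.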

Q: `CC1COCCN1c1cc(C2(S(C)(=N)=O)CC2)nc(-c2ccnc3[nH]ccc23)n1` (configuration not stated) + COC1C(OC(N)=O)C(O)C(Oc2ccc3c(O)c(NC(=O)c4ccc(O)c(CC=C(C)C)c4)c(=O)oc3c2C)OC1(C)C was tested. Which pIC50 (second compound 0.0316 µM) did it give?
A: < 5.00

Q: What about the pIC50 (second compound 0.1 µM) of the same compound?
A: < 5.00

Q: And the pIC50 (second compound 0.316 µM)?
A: < 5.00

Q: What about the pIC50 (second compound 1 µM) of the same compound?
A: < 5.00

Q: And the pIC50 (second compound 3.16 µM)?
A: < 5.00

Q: And the pIC50 (second compound 10 µM)?
A: < 5.00

Q: And the viability, T/C (second compound 0.0316 µM, first compound 0.0316 µM)?
A: 93.8%

Q: What about the viability, T/C (second compound 0.0316 µM, first compound 0.1 µM) of the same compound?
A: 104%

Q: What about the viability, T/C (second compound 0.0316 µM, first compound 0.316 µM) of the same compound?
A: 100%

Q: What about the viability, T/C (second compound 0.0316 µM, first compound 1 µM) of the same compound?
A: 98.5%

Q: What about the viability, T/C (second compound 0.0316 µM, first compound 3.16 µM) of the same compound?
A: 98.5%

Q: And the viability, T/C (second compound 0.0316 µM, first compound 10 µM)?
A: 67.1%

Q: What about the viability, T/C (second compound 0.1 µM, first compound 0.0316 µM) of the same compound?
A: 98.2%

Q: And the viability, T/C (second compound 0.1 µM, first compound 0.1 µM)?
A: 91.7%

Q: What about the viability, T/C (second compound 0.1 µM, first compound 0.316 µM) of the same compound?
A: 101%

Q: What about the viability, T/C (second compound 0.1 µM, first compound 1 µM) of the same compound?
A: 96.6%

Q: What about the viability, T/C (second compound 0.1 µM, first compound 3.16 µM) of the same compound?
A: 92.3%

Q: What about the viability, T/C (second compound 0.1 µM, first compound 10 µM) of the same compound?
A: 73.9%

Q: And the viability, T/C (second compound 0.316 µM, first compound 0.0316 µM)?
A: 97.7%

Q: What about the viability, T/C (second compound 0.316 µM, first compound 0.1 µM) of the same compound?
A: 103%

Q: What about the viability, T/C (second compound 0.316 µM, first compound 0.316 µM) of the same compound?
A: 105%

Q: What about the viability, T/C (second compound 0.316 µM, first compound 1 µM) of the same compound?
A: 95.5%

Q: What about the viability, T/C (second compound 0.316 µM, first compound 3.16 µM) of the same compound?
A: 97.2%

Q: What about the viability, T/C (second compound 0.316 µM, first compound 10 µM) of the same compound?
A: 65.1%

Q: And the viability, T/C (second compound 1 µM, first compound 0.0316 µM)?
A: 99.3%

Q: What about the viability, T/C (second compound 1 µM, first compound 0.1 µM) of the same compound?
A: 99.1%

Q: What about the viability, T/C (second compound 1 µM, first compound 0.316 µM) of the same compound?
A: 108%

Q: And the viability, T/C (second compound 1 µM, first compound 1 µM)?
A: 104%

Q: And the viability, T/C (second compound 1 µM, first compound 3.16 µM)?
A: 94.2%

Q: What about the viability, T/C (second compound 1 µM, first compound 10 µM) of the same compound?
A: 63.9%

Q: And the viability, T/C (second compound 3.16 µM, first compound 0.0316 µM)?
A: 107%

Q: What about the viability, T/C (second compound 3.16 µM, first compound 0.1 µM) of the same compound?
A: 100%

Q: And the viability, T/C (second compound 3.16 µM, first compound 0.316 µM)?
A: 108%

Q: And the viability, T/C (second compound 3.16 µM, first compound 1 µM)?
A: 94%

Q: What about the viability, T/C (second compound 3.16 µM, first compound 3.16 µM) of the same compound?
A: 94.5%

Q: And the viability, T/C (second compound 3.16 µM, first compound 10 µM)?
A: 60.6%

Q: And the viability, T/C (second compound 10 µM, first compound 0.0316 µM)?
A: 96.8%

Q: What about the viability, T/C (second compound 10 µM, first compound 0.1 µM) of the same compound?
A: 95.3%

Q: And the viability, T/C (second compound 10 µM, first compound 0.316 µM)?
A: 100%

Q: What about the viability, T/C (second compound 10 µM, first compound 1 µM) of the same compound?
A: 98.6%

Q: What about the viability, T/C (second compound 10 µM, first compound 3.16 µM) of the same compound?
A: 98.7%

Q: And the viability, T/C (second compound 10 µM, first compound 10 µM)?
A: 61.8%
